Measurements published in PMC3072031 (Analytical chemistry, 2010).

Columns and labels:
detection conjugate = type: binding; conditions: deduced from equation (1)
Aβ(1–40) mAb = conditions: reported value; ref [41]; cited from earlier work

## Aβ(1–40): amyloid-β peptide, purchased from American Peptide Inc.; endogenous peptide in human CSF samples
Detection conjugate
  KD deduced from Langmuir isotherm, in words: nanomolar level
Aβ(1–40) mAb
  KD between the Aβ(1–40) mAb and Aβ(1–40), in words: nanomolar level

## Aβ(1–42): 42-residue-long amyloid-β peptide, purchased from American Peptide Inc.; endogenous peptide in human CSF samples
Detection conjugate
  KD deduced from Langmuir isotherm, in words: nanomolar level
